From ChEMBL document CHEMBL1641476, “Tetrahydroquinoline derivatives as opioid receptor antagonists” (Bioorg Med Chem Lett, 2011) come the findings set out here.

The structures appear in SMILES notation.

In general, Ki refers to the dissociation constant of the complex between target and ligand, obtained from inhibition or displacement. The term half-life denotes the time in which the quantity being followed falls by half. Read a low half-life as fast loss. A word on the clearance: it is the volume of plasma or blood freed of the substance per unit of time. High values mean a high capacity for elimination, low ones a low capacity for elimination. Broadly, the bioavailability is the share of a dose that reaches the circulation, judged against a reference dose that is usually intravenous. Higher therefore signals good availability.

In one data set the target is Mu-type opioid receptor (Homo sapiens, UniProt P35372). Description: Antagonist activity at human mu opioid receptor expressed in CHO cells assessed as [35S]GTPgammaS binding by SPA. It counts as functional, cell-based.
Data set [1] has as its target Delta-type opioid receptor (Homo sapiens, UniProt P41143). In words: Antagonist activity at human delta opioid receptor expressed in CHO cells assessed as [35S]GTPgammaS binding by SPA. The data set is classed as functional, cell-based. A general note: GTPγS resists hydrolysis and so accumulates on activated G proteins.
The target in data set [2] is Kappa-type opioid receptor (Homo sapiens, UniProt P41145). In words: Antagonist activity at human kappa opioid receptor expressed in CHO cells assessed as [35S]GTPgammaS binding by SPA. It counts as functional, cell-based.
A short description of data set [3]: Half life in iv dosed Long-Evans rat. It counts as ADME, organism-based. The conditions noted are these: in vivo.
Data set [4] can be described thus: Volume of distribution at steady state in iv dosed Long-Evans rat. It counts as ADME, organism-based. The conditions noted are these: in vivo, read-out: Vdss.
The nature of data set [5]: Clearance in iv dosed Long-Evans rat. The data set is classed as ADME, organism-based. The conditions noted are these: in vivo.
Data set [6] is described as follows: Oral bioavailability in Long-Evans rat. It counts as ADME, organism-based. The conditions noted are these: in vivo.
In the next data set the test system is Rattus norvegicus. Description: Ratio of drug level in po dosed Long-Evans rat. It counts as ADME, organism-based. The conditions noted are these: in vivo.

Sequence of Kappa-type opioid receptor (P41145 whole entry): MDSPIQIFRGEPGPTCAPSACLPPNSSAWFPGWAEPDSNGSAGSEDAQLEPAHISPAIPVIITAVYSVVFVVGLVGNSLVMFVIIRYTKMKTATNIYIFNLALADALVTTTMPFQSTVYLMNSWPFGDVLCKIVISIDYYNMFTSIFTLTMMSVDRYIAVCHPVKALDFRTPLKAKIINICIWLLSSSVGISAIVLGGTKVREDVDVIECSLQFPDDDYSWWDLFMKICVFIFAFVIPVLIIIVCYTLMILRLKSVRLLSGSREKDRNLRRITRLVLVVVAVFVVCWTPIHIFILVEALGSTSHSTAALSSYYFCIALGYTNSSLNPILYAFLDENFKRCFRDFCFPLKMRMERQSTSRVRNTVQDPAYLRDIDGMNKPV
Sequence of Delta-type opioid receptor (P41143 whole entry): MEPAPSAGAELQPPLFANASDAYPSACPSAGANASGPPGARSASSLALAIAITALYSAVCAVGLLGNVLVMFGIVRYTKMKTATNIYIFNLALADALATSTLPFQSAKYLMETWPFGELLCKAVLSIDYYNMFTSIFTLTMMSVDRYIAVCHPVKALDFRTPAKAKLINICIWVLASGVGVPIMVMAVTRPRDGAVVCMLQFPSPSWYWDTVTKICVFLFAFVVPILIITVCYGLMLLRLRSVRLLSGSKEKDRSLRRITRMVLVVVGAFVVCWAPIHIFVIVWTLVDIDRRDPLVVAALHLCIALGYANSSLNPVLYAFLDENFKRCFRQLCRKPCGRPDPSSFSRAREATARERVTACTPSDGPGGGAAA
Sequence of Mu-type opioid receptor (P35372 whole entry): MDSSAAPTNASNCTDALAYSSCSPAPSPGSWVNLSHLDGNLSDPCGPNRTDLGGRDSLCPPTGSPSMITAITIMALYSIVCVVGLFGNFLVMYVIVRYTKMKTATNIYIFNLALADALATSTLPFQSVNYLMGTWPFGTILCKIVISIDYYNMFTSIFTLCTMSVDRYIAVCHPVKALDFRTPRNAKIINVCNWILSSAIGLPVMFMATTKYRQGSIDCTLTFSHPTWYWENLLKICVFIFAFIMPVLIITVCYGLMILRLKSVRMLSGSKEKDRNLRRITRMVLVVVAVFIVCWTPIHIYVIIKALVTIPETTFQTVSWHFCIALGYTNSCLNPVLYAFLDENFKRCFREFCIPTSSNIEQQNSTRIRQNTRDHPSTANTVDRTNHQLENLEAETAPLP

As for `Cc1cc(CNC2Cc3ccccc3C2)ccc1N1CCCc2cc(C(N)=O)ccc21`, the figures for the Ki (on Mu-type opioid receptor; in data set [1]; in data set [2]) were 1.58 nM, 12.6 nM and 20 nM, respectively.

For `CC(C)(C)CCNCc1ccc(N2CCCc3cc(C(N)=O)ccc32)cc1`, the inhibitory constant (Ki) is 50.1 nM at Mu-type opioid receptor, 316 nM in data set [1] and 251 nM in data set [2].

Turning to `NC(=O)c1ccc2c(c1)CCCN2c1ccc(CNC2Cc3ccccc3C2)c(F)c1`, the Ki at Mu-type opioid receptor was 7.94 nM; in data set [1], 100 nM; in data set [2] it was 200 nM.

As for `NC(=O)c1ccc2c(c1)CCCN2c1ccc(CNCCC2CCOCC2)cc1`, the inhibition constant (Ki) at Mu-type opioid receptor is 126 nM; in data set [1] it was 316 nM; in data set [2], 251 nM.

On to `CC(C)CCNCc1ccc(N2CCCc3cc(C(N)=O)ccc32)cc1`, for which the Ki was 79.4 nM at Mu-type opioid receptor, 316 nM in data set [1] and 501 nM in data set [2].

For the compound `NC(=O)c1ccc2c(c1)CCCN2c1cccc(CNCCC2=CCCCC2)c1`, the Ki was 50.1 nM at Mu-type opioid receptor, 200 nM in data set [1] and 1260 nM in data set [2].

Take `NC(=O)c1ccc2c(c1)CCCN2c1ccc(CNCC2CCCCC2)cc1`: the Ki is 39.8 nM at Mu-type opioid receptor, 398 nM in data set [1] and 316 nM in data set [2].

Take `NC(=O)c1ccc2c(c1)CCCN2c1ccc(CNCCc2cccs2)cc1`: the Ki is 25.1 nM at Mu-type opioid receptor, 316 nM in data set [1] and 631 nM in data set [2].

In the case of `NC(=O)c1ccc2c(c1)CCCN2c1ccc(CNC2Cc3ccc(F)cc3C2)cc1` (stereo not drawn), the Ki at Mu-type opioid receptor is 12.6 nM; in data set [1], 79.4 nM; in data set [2], 126 nM.

In the case of `NC(=O)c1ccc2c(c1)CCCN2c1ccc(CNC2Cc3ccccc3C2)c(C(F)(F)F)c1`, the inhibition constant (Ki) at Mu-type opioid receptor was 50.1 nM; in data set [1] it was 63.1 nM; in data set [2], 631 nM.

With `NC(=O)c1ccc2c(c1)CCCN2c1cccc(C(=O)NCCC2=CCCCC2)c1`, the inhibitory constant (Ki) was 2000 nM on Mu-type opioid receptor, 1580 nM in data set [1] and more than 3980 nM in data set [2].

Turning to `NC(=O)c1ccc2c(c1)CCCN2c1cc(F)c(CNC2Cc3ccccc3C2)c(F)c1`, the Ki at Mu-type opioid receptor is 25.1 nM; in data set [1], 316 nM; in data set [2], 631 nM.

`Cc1cc(N2CCCc3cc(C(N)=O)ccc32)ccc1CNCCC1=CCCCC1`: the Ki on Mu-type opioid receptor is 100 nM; in data set [1], 501 nM; in data set [2], 631 nM.

Turning to `CCCCCNCc1ccc(N2CCCc3cc(C(N)=O)ccc32)cc1`, the inhibitory constant (Ki) is 50.1 nM at Mu-type opioid receptor, 251 nM in data set [1] and 1000 nM in data set [2].

Turning to `Cc1cc(CNCCC2=CCCCC2)ccc1N1CCCc2cc(C(N)=O)ccc21`, the Ki on Mu-type opioid receptor was 12.6 nM; in data set [1], 100 nM; in data set [2] it was 200 nM.

For the compound `CC1(C)CCC(NCc2ccc(N3CCCc4cc(C(N)=O)ccc43)cc2)CC1`, the figures for the inhibition constant (Ki) (at Mu-type opioid receptor; in data set [1]; in data set [2]) were 10 nM, 50.1 nM and 63.1 nM, respectively.

For the compound `NC(=O)c1ccc2c(c1)CCCN2c1ccc(CNC2Cc3ccccc3C2)c(Cl)c1`, the Ki was 15.8 nM at Mu-type opioid receptor, 100 nM in data set [1] and 200 nM in data set [2].

For the compound `NC(=O)c1ccc2c(c1)CCCN2c1ccc(CNCc2cccc(F)c2)cc1`, the Ki was 100 nM on Mu-type opioid receptor, 398 nM in data set [1] and 631 nM in data set [2].

As to `CC(C)CNCc1ccc(N2CCCc3cc(C(N)=O)ccc32)cc1`, the inhibition constant Ki at Mu-type opioid receptor is 631 nM; in data set [1], more than 3980 nM; in data set [2], 1260 nM.

On to `NC(=O)c1ccc2c(c1)CCCN2c1ccc(CNC2CCN(C3CCOCC3)CC2)cc1`, for which the inhibition constant (Ki) (on Mu-type opioid receptor; in data set [1]; in data set [2]) was more than 3980 nM in each case.

On to `O=C(O)c1ccc2c(c1)CCCN2c1ccc(CNCCC2=CCCCC2)cc1`, for which the figures for the inhibition constant Ki (at Mu-type opioid receptor; in data set [1]; in data set [2]) were more than 3160 nM, more than 3980 nM and more than 3980 nM, respectively.

With `NC(=O)c1ccc2c(c1)CCCN2c1ccc(CNCCc2cccc(F)c2)cc1`, the figures for the Ki (at Mu-type opioid receptor; in data set [1]; in data set [2]) were 31.6 nM, 251 nM and 794 nM, respectively.

As to `C1=C(CCNCc2ccc(N3CCCc4ccccc43)cc2)CCCC1`, the inhibitory constant (Ki) is 398 nM at Mu-type opioid receptor, more than 3980 nM in data set [1] and more than 3980 nM in data set [2].

On to `Cc1cc(N2CCCc3cc(C(N)=O)ccc32)ccc1CNC1Cc2ccccc2C1`, for which the results for the Ki (on Mu-type opioid receptor; in data set [1]; in data set [2]) were 7.94 nM, 158 nM and 158 nM, respectively.

As for `NC(=O)c1ccc2c(c1)CCCN2c1ccc(CNC2Cc3ccccc3C2)cc1`, the inhibitory constant (Ki) is 5.01 nM on Mu-type opioid receptor, 39.8 nM in data set [1] and 25.1 nM in data set [2].

Take `NC(=O)c1ccc2c(c1)CCCN2c1ccc(CNCCC2=CCCCC2)cc1`: the Ki at Mu-type opioid receptor is 25.1 nM; in data set [1], 158 nM; in data set [2], 316 nM. In data set [3], the half-life was 5.34 h. The Vd in data set [4] is 1.5 L/kg. Moreover, the clearance in data set [5] turned out to be 26.5 mL/min/kg. Moreover, in data set [6], the bioavailability was 33%. Further, the Ratio in the data set with Rattus norvegicus is reported as 0.1.
